{"source": "patent US5358936A", "about": "“Anionic furanose derivatives, methods of making and using the same” (Gordon; Paul, priority 1991, dated 1994)", "system": "gastric submucosal thrombi", "assay": "Inhibition of gastric submucosal thrombi (Example 30)", "type": "in vivo, rat", "conditions": "10 mg/kg IV", "procedure": "Thrombosis was induced in rat stomach submucosal blood vessels by the following two-step treatment. First, 1.5 ml of 100 percent ethanol was administered by oral gavage. This produces non-specific injury to tissues and blood vessels of the gastric mucosa. Second, 1.0 mg of adenosine diphosphate (ADP) in 1.0 ml of H2 O, was administered by oral garage 15 minutes after the administration of ethanol. Administration of ADP biases the organ response towards thrombosis by inducing platelet aggregation.\nThe pathology generated is typically a disseminated pattern of multiple small thrombi, observed on examination of the gastric mucosa, 1-3 hours after ethanol administration. These thrombi are dark red, dilated, thrombosed submucosal blood vessel segments, each being approximately 1 mm thick and 2 to 6 mm long.\nIn these studies, animals were treated with drug or centrol at one hour prior to ethanol administration. Thrombosis was induced as discussed before, and animals were sacrificed at 1.5 hours after ethanol administration. Focal thrombi were then counted. In this study, n=9-10.", "note": "Counter-ions that a name gives are not always drawn.", "data": [{"molecule": "CC1(C)O[C@H]2O[C@H]([C@@H](COS(=O)(=O)O)OS(=O)(=O)O)[C@H](OS(=O)(=O)O)[C@H]2O1", "note": "[Compound III, 1,2-O-(2-Propylidene)-3,5,6-tri-O-sulfo-α-D-glucofuranose, tripotassium salt]", "values": [{"measurement": "Drug Effect on thrombi", "result": -62.3, "unit": "%"}, {"measurement": "Mean Thrombi per Stomach, ±SE", "setting": "ethanol + ADP, control 10.60 ± 1.42", "result": "4.00 ± 1.12", "unit": "per Stomach"}]}]}
